Results reported in US12439917B2, “Method for controlling phakopsora pachyrhizi having resistance against QoI fungicide” (SUMITOMO CHEMICAL COMPANY, LIMITED, priority 2020, dated 2025).

How the values were obtained:
[1] = system: soybean rust fungus strain with single amino acid substitution of F129L in the cytochrome b gene; conditions: F129L QoI-resistant soybean rust fungi; background art; cited from earlier work
[2] = system: soybean rust fungus (Phakopsora pachyrhizi) having an amino acid substitution of F129L on mitochondrial cytochrome b protein; test: Comparative Test Example 1: soybean leaf disk test versus commercial QoI fungicides; assay type: in vivo; conditions: method of Test Example 1
Description: A soybean leaf (cv; Kurosengoku) was punched out to 1 cm diameter to prepare a leaf disk. Each 1 mL of 1.2% agar medium was dispensed in 24 well microplate. A piece of the leaf disk was placed on each well. To a mixture of 0.5 μL of Sorpol (registered trademark) 1200KX, 4.5 μL of DMSO, and 5 μL of xylene was added 20 μL of a solution containing 10,000 ppm of the test compound in DMSO. The resulting mixture was diluted with ion exchange water to prepare a spray solution containing a predetermined concentration of the test compound. The spray solution was sprayed in 10 μL per one leaf disk. After 1 day, an aqueous suspension of spores of soybean rust fungus (Phakopsora pachyrhizi) having an amino acid substitution of F129L on mitochondrial cytochrome b protein (1.0×10^5/mL) was inoculated onto the leaf disks. After the inoculation, the microplate was placed in a growth chamber (light on for 6 hours, light off for 18 hours, 23° C. temperature, 60% humidity). After 1 day, the leaf disks were air-dried to disappear water droplets on the surface of the leaf disk, and the microplate was placed again in the growth chamber for 10 to 14 days. Thereafter, a lesion area of soybean rust disease was assessed. […] Here the untreated means that the spray solution containing the test compound was not sprayed onto the leaf disk.
The test was conducted by using as a test compound the compound 1, 4 or 9 of the present invention, the present compound 7, 8, 15, 18, 23, 31 or 37, pyribencarb, azoxystrobin, dimoxystrobin, metominostrobin, Fluoxastrobin, or Kresoxim-methyl at 50 ppm according to a method described in the Test Example 1. The results are indicated in [Table A] and [Table B].

Row | Compound | efficacy against the resistant fungi [1] | Lesion area (%) at 50 ppm [2] [%]
1 | CO/C=C(/C(=O)OC)c1ccccc1Oc1cc(Oc2ccccc2C#N)ncn1 [Azoxystrobin] | reduced to the level of practical problems | 100
2 | CO/C=C(\Oc1cc(C2CC2)ccc1C)C(=O)OC [Compound 1 of the present invention] | – | 0
3 | CO/C=C(\Oc1cc(C2OCCCO2)ccc1C)C(=O)OC [Compound 4 of the present invention] | – | 10
4 | CO/C=C(\Oc1cc(/N=C/N(C)c2ccccc2)ccc1C)C(=O)OC [Compound 9 of the present invention] | – | 10
5 | CNC(=O)/C(=N/OC)c1ccccc1COc1cc(C)ccc1C [Dimoxystrobin] | reduced to the level of practical problems | 100
6 | CO/N=C(/C1=NOCCO1)c1ccccc1Oc1ncnc(Oc2ccccc2Cl)c1F [Fluoxastrobin] | reduced to the level of practical problems | 100
7 | CO/N=C(/C(=O)OC)c1ccccc1COc1ccccc1C [Kresoxim-methyl] | reduced to the level of practical problems | 100
8 | CO/C=C(/C(=O)OC)N(C)c1cccc(Oc2ccccc2C)c1 [Present compound 7] | – | 10
9 | CO/C=C(\Oc1cccc(C(=O)c2ccccc2)c1)C(=O)OC [Present compound 8] | – | 10
10 | CO/C=C(\Oc1cc(Oc2ccccc2)ccc1C)C(=O)OC [Present compound 15] | – | 0
11 | CO/C=C(\Oc1cc(Cc2ccccc2)ccc1C)C(=O)OC [Present compound 18] | – | 0
12 | COC(=O)NCc1cc(/C(C)=N/OCc2cccc(C)n2)ccc1Cl [Pyribencarb] | reduced to the level of practical problems | 100
13 | Metominostrobin | reduced to the level of practical problems | 100
